# Source: PubChem BioAssay (NCI)
#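 GI50: concentration for 50% inhibition of growth. At the TGI there is no net growth.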
# Legend:
# Experiment in all cases: inhibition of tumour cell growth, NCI panel, 384-well format
# 786-0 renal = test system: 786-0 renal
# A498 renal = test system: A498 renal
# A549 NSCLC = test system: A549 NSCLC
# ACHN renal = test system: ACHN renal
# BT-549 breast = test system: BT-549 breast
# CAKI-1 renal = test system: CAKI-1 renal
# CCRF-CEM leukemia = test system: CCRF-CEM leukemia
# COLO 205 colon = test system: COLO 205 colon
# DU-145 prostate = test system: DU-145 prostate
# EKVX NSCLC = test system: EKVX NSCLC
# HCC-2998 colon = test system: HCC-2998 colon
# HCT-15 colon = test system: HCT-15 colon
# HL-60(TB) leukemia = test system: HL-60(TB) leukemia
# HOP-62 NSCLC = test system: HOP-62 NSCLC
# HOP-92 NSCLC = test system: HOP-92 NSCLC
# HS 578T breast = test system: HS 578T breast
# HT29 colon = test system: HT29 colon
# IGROV1 ovarian = test system: IGROV1 ovarian
# KM12 colon = test system: KM12 colon
# M14 melanoma = test system: M14 melanoma
# MALME-3M melanoma = test system: MALME-3M melanoma
# MCF7 breast = test system: MCF7 breast
# MDA-MB-231 breast = test system: MDA-MB-231 breast
# MDA-MB-435 melanoma = test system: MDA-MB-435 melanoma
# MDA-MB-468 breast = test system: MDA-MB-468 breast
# MOLT-4 leukemia = test system: MOLT-4 leukemia
# NCI-H226 lung = test system: NCI-H226 lung
# NCI-H23 lung = test system: NCI-H23 lung
# NCI-H322M lung = test system: NCI-H322M lung
# NCI-H460 NSCLC = test system: NCI-H460 NSCLC
# NCI-H522 lung = test system: NCI-H522 lung
# NCI/ADR-RES ovarian = test system: NCI/ADR-RES ovarian
# OVCAR-3 ovarian = test system: OVCAR-3 ovarian
# OVCAR-4 ovarian = test system: OVCAR-4 ovarian
# OVCAR-5 ovarian = test system: OVCAR-5 ovarian
# OVCAR-8 ovarian = test system: OVCAR-8 ovarian
# PC-3 prostate = test system: PC-3 prostate
# RPMI-8226 leukemia = test system: RPMI-8226 leukemia
# RXF 393 renal = test system: RXF 393 renal
# SF-268 CNS = test system: SF-268 CNS
# SF-295 CNS = test system: SF-295 CNS
# SF-539 CNS = test system: SF-539 CNS
# SK-MEL-2 melanoma = test system: SK-MEL-2 melanoma
# SK-MEL-28 melanoma = test system: SK-MEL-28 melanoma
# SK-MEL-5 melanoma = test system: SK-MEL-5 melanoma
# SK-OV-3 ovarian = test system: SK-OV-3 ovarian
# SN12C renal = test system: SN12C renal
# SNB-19 CNS = test system: SNB-19 CNS
# SNB-75 CNS = test system: SNB-75 CNS
# SR leukemia = test system: SR leukemia
# SW-620 colon = test system: SW-620 colon
# T-47D breast = test system: T-47D breast
# TK-10 renal = test system: TK-10 renal
# U251 glioblastoma = test system: U251 glioblastoma
# UACC-257 melanoma = test system: UACC-257 melanoma
# UACC-62 melanoma = test system: UACC-62 melanoma
smiles,measurement,setting,value
CC1(C)CCC2=C(O1)c1ccccc1C(=O)C2=O,GI50,786-0 renal,1.84 µM
same,TGI,786-0 renal,3.37 µM
same,GI50,A498 renal,1.94 µM
same,TGI,A498 renal,3.47 µM
same,GI50,A549 NSCLC,1.91 µM
same,TGI,A549 NSCLC,3.35 µM
same,GI50,ACHN renal,1.9 µM
same,TGI,ACHN renal,3.32 µM
same,GI50,BT-549 breast,1.77 µM
same,TGI,BT-549 breast,3.16 µM
same,GI50,CAKI-1 renal,1.87 µM
same,TGI,CAKI-1 renal,3.28 µM
same,GI50,CCRF-CEM leukemia,1.89 µM
same,TGI,CCRF-CEM leukemia,3.32 µM
same,GI50,COLO 205 colon,2.27 µM
same,TGI,COLO 205 colon,3.73 µM
same,GI50,DU-145 prostate,1.85 µM
same,TGI,DU-145 prostate,3.28 µM
same,GI50,EKVX NSCLC,1.75 µM
same,TGI,EKVX NSCLC,3.15 µM
same,GI50,HCC-2998 colon,1.75 µM
same,TGI,HCC-2998 colon,3.42 µM
same,GI50,HCT-15 colon,1.84 µM
same,TGI,HCT-15 colon,3.26 µM
same,GI50,HL-60(TB) leukemia,1.44 µM
same,TGI,HL-60(TB) leukemia,2.79 µM
same,GI50,HOP-62 NSCLC,1.61 µM
same,TGI,HOP-62 NSCLC,2.98 µM
same,GI50,HOP-92 NSCLC,1.88 µM
same,TGI,HOP-92 NSCLC,3.33 µM
same,GI50,HS 578T breast,1.7 µM
same,TGI,HS 578T breast,3.08 µM
same,GI50,HT29 colon,1.88 µM
same,TGI,HT29 colon,3.31 µM
same,GI50,IGROV1 ovarian,2.02 µM
same,TGI,IGROV1 ovarian,3.82 µM
same,GI50,KM12 colon,2.06 µM
same,TGI,KM12 colon,3.8 µM
same,GI50,M14 melanoma,1.94 µM
same,TGI,M14 melanoma,3.37 µM
same,GI50,MALME-3M melanoma,1.99 µM
same,TGI,MALME-3M melanoma,3.42 µM
same,GI50,MCF7 breast,1.79 µM
same,TGI,MCF7 breast,3.21 µM
same,GI50,MDA-MB-231 breast,1.88 µM
same,TGI,MDA-MB-231 breast,3.54 µM
same,GI50,MDA-MB-435 melanoma,1.86 µM
same,TGI,MDA-MB-435 melanoma,3.27 µM
same,GI50,MDA-MB-468 breast,1.2 µM
same,TGI,MDA-MB-468 breast,2.45 µM
same,GI50,MOLT-4 leukemia,1.76 µM
same,TGI,MOLT-4 leukemia,3.17 µM
same,GI50,NCI-H226 lung,2 µM
same,TGI,NCI-H226 lung,3.44 µM
same,GI50,NCI-H23 lung,1.37 µM
same,TGI,NCI-H23 lung,2.67 µM
same,GI50,NCI-H322M lung,2.51 µM
same,TGI,NCI-H322M lung,5.8 µM
same,GI50,NCI-H460 NSCLC,1.9 µM
same,TGI,NCI-H460 NSCLC,3.5 µM
same,GI50,NCI-H522 lung,1.84 µM
same,TGI,NCI-H522 lung,3.24 µM
same,GI50,NCI/ADR-RES ovarian,2.08 µM
same,TGI,NCI/ADR-RES ovarian,3.74 µM
same,GI50,OVCAR-3 ovarian,1.79 µM
same,TGI,OVCAR-3 ovarian,3.22 µM
same,GI50,OVCAR-4 ovarian,2 µM
same,TGI,OVCAR-4 ovarian,3.43 µM
same,GI50,OVCAR-5 ovarian,1.62 µM
same,TGI,OVCAR-5 ovarian,2.99 µM
same,GI50,OVCAR-8 ovarian,1.98 µM
same,TGI,OVCAR-8 ovarian,3.72 µM
same,GI50,PC-3 prostate,2.14 µM
same,TGI,PC-3 prostate,4.98 µM
same,GI50,RPMI-8226 leukemia,1.82 µM
same,TGI,RPMI-8226 leukemia,3.23 µM
same,GI50,RXF 393 renal,1.93 µM
same,TGI,RXF 393 renal,3.35 µM
same,GI50,SF-268 CNS,1.97 µM
same,TGI,SF-268 CNS,3.49 µM
same,GI50,SF-295 CNS,1.48 µM
same,TGI,SF-295 CNS,2.91 µM
same,GI50,SF-539 CNS,1.89 µM
same,TGI,SF-539 CNS,3.31 µM
same,GI50,SK-MEL-2 melanoma,3.02 µM
same,TGI,SK-MEL-2 melanoma,4.53 µM
same,GI50,SK-MEL-28 melanoma,2.48 µM
same,TGI,SK-MEL-28 melanoma,3.96 µM
same,GI50,SK-MEL-5 melanoma,1.75 µM
same,TGI,SK-MEL-5 melanoma,3.14 µM
same,GI50,SK-OV-3 ovarian,1.75 µM
same,TGI,SK-OV-3 ovarian,3.28 µM
same,GI50,SN12C renal,1.61 µM
same,TGI,SN12C renal,2.98 µM
same,GI50,SNB-19 CNS,1.88 µM
same,TGI,SNB-19 CNS,3.43 µM
same,GI50,SNB-75 CNS,0.95 µM
same,TGI,SNB-75 CNS,2.14 µM
same,GI50,SR leukemia,1.89 µM
same,TGI,SR leukemia,3.32 µM
same,GI50,SW-620 colon,1.79 µM
same,TGI,SW-620 colon,3.2 µM
same,GI50,T-47D breast,1.36 µM
same,TGI,T-47D breast,2.66 µM
same,GI50,TK-10 renal,3.37 µM
same,TGI,TK-10 renal,10.6 µM
same,GI50,U251 glioblastoma,2.01 µM
same,TGI,U251 glioblastoma,3.63 µM
same,GI50,UACC-257 melanoma,1.67 µM
same,TGI,UACC-257 melanoma,3.05 µM
same,GI50,UACC-62 melanoma,1.97 µM
same,TGI,UACC-62 melanoma,3.4 µM
